Results taken from ChEMBL document CHEMBL1201862, “PubChem BioAssay data set” (2004).
Active and inactive are the calls of the source.

How the values were obtained:
[1] = Fluorescence-based cell-based high throughput dose response assay for inhibitors of the interaction of nucleotide-binding oligomerization domain containing 2 (NOD2) and the receptor-interacting serine-threonine kinase 2 (RIPK2).; format: functional; details: Homo sapiens
[2] = molecular target: T1, Nuclear receptor subfamily 0 group B member 1 (Homo sapiens, UniProt P51843); format: functional, cell-based;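 further: HEK293T cells transfected with SF-1 and DAX-1 plus StAR promoter luciferase reporter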
T1 sequence (P51843 whole entry): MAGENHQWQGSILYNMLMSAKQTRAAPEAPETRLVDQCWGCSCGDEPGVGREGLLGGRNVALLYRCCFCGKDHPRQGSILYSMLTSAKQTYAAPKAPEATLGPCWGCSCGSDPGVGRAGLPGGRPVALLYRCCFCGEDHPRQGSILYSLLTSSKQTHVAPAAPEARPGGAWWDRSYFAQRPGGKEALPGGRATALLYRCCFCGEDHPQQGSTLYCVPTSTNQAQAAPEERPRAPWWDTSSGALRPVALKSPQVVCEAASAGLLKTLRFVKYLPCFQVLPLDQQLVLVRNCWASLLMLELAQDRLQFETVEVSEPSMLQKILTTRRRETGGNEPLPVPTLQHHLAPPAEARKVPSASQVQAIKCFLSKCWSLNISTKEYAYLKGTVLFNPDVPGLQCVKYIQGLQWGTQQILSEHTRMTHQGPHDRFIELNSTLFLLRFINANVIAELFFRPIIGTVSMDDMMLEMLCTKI

cells = format: functional, cell-based
[3] = molecular target: FAD-linked sulfhydryl oxidase ALR (Homo sapiens, UniProt P55789); assay: ALR-catalysed DTT oxidation blockers – biochemical, H2O2 detection, luminescence, cherry-pick, dose response (AID 493248)
Chain of FAD-linked sulfhydryl oxidase ALR (P55789 whole entry, the tested form may be a part): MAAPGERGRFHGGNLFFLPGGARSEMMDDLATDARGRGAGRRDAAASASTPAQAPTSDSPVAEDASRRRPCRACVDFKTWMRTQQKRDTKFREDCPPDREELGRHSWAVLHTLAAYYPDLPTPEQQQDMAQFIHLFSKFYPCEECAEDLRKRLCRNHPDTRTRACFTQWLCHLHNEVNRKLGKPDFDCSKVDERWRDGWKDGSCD

[4] = off-target signal loss in HeLa-CEM21 co-culture – HeLa F-luc CTL cells, cherry-picked, counter-screen for HIV-1 Env fusion inhibitor project, dose response (AID 652040); format: functional, cell-based;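 further: potency for signal decrease marking cytotoxic or nonspecific inhibition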
[5] = molecular target: Heat shock protein HSP 90-alpha (Homo sapiens, UniProt P07900); format: functional, organism-based
[6] = molecular target: T2, DNA repair and recombination protein RAD54-like (Homo sapiens, UniProt Q92698); assay: RAD54 Holliday junction migration blockers – biochemical, fluorescence, cherry-picked samples, dose series, confirmation (AID 651657); format: functional
T2 sequence (Q92698 whole entry): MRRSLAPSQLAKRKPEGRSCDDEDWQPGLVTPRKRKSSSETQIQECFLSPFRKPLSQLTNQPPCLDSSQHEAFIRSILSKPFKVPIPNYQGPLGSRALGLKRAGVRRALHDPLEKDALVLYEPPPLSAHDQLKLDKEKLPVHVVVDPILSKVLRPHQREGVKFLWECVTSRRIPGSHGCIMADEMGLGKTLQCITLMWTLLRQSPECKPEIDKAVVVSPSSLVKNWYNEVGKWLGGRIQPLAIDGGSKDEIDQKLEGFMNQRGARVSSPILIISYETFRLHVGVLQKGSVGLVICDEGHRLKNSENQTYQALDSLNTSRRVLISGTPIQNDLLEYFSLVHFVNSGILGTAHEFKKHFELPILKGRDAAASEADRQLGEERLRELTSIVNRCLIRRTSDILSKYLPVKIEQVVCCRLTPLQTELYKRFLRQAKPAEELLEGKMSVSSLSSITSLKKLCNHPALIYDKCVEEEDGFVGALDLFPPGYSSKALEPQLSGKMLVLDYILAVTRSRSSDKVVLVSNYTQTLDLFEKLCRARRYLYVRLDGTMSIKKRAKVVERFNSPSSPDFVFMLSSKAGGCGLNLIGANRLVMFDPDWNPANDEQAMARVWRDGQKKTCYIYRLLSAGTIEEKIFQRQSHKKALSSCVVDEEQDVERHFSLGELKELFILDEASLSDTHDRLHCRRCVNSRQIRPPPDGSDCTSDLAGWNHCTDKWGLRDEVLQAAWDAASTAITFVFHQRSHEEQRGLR

INS1 = assay: INS-1E survival protection against cytokine death – cell-based, luminescence, retest, dose response (AID 449756); format: functional; details: Rattus norvegicus;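 further: cell death triggered by IL-1 beta plus TNF-alpha plus IFN-gamma mixture; protective hits raise ATP signal compared with cytokine alone wells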
[7] = molecular target: T3, Apoptotic protease-activating factor 1 (Homo sapiens, UniProt O14727); format: functional
T3 sequence (O14727 whole entry): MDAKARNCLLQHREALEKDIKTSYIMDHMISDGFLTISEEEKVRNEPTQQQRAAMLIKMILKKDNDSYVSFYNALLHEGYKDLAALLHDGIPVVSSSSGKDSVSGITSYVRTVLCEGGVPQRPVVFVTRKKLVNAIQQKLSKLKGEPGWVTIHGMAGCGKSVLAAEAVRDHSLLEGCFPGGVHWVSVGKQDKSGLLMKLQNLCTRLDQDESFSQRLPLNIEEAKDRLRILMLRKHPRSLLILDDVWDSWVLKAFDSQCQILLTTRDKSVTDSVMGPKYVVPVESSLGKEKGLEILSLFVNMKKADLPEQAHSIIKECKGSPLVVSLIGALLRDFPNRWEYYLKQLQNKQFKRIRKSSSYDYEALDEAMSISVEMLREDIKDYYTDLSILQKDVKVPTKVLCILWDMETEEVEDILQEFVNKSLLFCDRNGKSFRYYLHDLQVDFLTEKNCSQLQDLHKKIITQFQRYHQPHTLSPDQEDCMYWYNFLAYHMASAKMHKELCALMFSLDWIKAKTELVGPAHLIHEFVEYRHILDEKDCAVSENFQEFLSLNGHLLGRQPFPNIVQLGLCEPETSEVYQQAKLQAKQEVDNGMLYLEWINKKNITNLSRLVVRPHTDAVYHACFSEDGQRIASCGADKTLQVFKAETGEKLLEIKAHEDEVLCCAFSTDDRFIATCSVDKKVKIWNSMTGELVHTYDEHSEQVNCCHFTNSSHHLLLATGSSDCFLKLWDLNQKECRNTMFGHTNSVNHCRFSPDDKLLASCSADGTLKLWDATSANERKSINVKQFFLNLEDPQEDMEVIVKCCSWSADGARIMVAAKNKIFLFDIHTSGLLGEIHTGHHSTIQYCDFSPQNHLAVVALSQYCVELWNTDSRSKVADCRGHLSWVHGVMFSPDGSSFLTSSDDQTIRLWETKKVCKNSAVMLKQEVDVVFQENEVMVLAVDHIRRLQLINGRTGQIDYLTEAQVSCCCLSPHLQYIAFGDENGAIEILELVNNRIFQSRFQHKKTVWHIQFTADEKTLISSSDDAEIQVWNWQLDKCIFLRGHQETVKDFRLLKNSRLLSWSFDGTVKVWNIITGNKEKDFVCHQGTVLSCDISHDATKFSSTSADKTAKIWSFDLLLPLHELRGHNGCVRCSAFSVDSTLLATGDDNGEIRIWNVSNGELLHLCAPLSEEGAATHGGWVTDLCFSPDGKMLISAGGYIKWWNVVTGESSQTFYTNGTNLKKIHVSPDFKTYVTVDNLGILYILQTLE

[8] = molecular target: T4, Short transient receptor potential channel 4 (Mus musculus, UniProt Q9QUQ5); assay: calcium entry via TRPC4 opening agents – cell-based, HEK293 TRPC4/mu-opioid, Fluo-4 calcium, dose response (AID 434937); format: functional
T4 sequence (Q9QUQ5 whole entry): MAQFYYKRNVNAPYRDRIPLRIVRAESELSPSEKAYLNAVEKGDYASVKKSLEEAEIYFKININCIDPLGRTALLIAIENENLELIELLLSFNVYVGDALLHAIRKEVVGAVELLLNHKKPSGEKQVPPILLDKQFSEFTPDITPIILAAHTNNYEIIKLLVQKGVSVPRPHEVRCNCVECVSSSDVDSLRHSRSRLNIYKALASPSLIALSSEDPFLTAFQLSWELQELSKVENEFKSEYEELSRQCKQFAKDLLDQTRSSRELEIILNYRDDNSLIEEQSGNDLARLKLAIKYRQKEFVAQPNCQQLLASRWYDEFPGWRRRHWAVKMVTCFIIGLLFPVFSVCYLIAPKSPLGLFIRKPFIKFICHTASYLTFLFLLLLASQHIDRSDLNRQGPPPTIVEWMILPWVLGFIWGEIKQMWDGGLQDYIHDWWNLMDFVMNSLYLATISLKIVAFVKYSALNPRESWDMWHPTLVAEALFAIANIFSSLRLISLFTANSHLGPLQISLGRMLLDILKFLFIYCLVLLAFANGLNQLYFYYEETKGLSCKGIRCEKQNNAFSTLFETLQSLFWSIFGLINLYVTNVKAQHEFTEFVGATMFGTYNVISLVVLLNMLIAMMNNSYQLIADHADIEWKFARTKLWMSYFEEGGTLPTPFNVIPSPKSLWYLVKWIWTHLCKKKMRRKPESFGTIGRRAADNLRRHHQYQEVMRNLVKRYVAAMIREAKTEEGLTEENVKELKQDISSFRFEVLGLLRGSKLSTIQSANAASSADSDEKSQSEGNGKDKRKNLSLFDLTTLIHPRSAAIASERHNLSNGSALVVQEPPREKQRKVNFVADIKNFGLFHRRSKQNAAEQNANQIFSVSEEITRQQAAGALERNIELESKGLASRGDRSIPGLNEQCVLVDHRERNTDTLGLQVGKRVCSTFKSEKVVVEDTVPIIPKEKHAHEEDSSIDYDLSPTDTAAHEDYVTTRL

BJ [9] = assay: cells; format: functional, cell-based; details: Homo sapiens
BJ [10] = assay: BJ-TERT fibroblast viability loss – cell-based, RAS-independent, luminescence, dose response (AID 1933); format: functional; details: Homo sapiens
[11] = DRD fibroblast viability loss – cell-based, non-viral oncogenic, luminescence, dose response (AID 1934); format: functional; details: Homo sapiens
[12] = HEK-293T viability loss after treatment – luminescence, T-cell screen hits, cytotoxicity control for TCR NF-kB inhibitor project, dose response (AID 489026); format: functional, cell-based;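 further: cells exposed to compound about 14 hours before the viability readout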
BJ [13] = assay: BJ-TERT-LT-ST fibroblast viability loss – cell-based, RAS-independent, luminescence, dose response (AID 1935); format: functional; details: Homo sapiens;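 further: BJ fibroblasts immortalized with TERT plus LT and ST oncogenes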

Q: Which IC50 [1] does the source give for `Cc1noc2ncnc(Sc3c(Cl)cccc3Cl)c12` here?
A: 4.6 µM (active)

Q: With `O=C(COc1ccc(Cl)cc1Cl)NC(=O)NC1CCCC1` as the compound, how does the IC50 [2] read?
A: > 67.5 µM (inactive)

Q: What about the IC50 (cells) of the same compound?
A: > 67.5 µM (inactive)

Q: Which IC50 [2] does the source give for `COc1ccc(/C=N/Nc2nc3ccccc3o2)cc1O` here?
A: > 67.5 µM (inactive)

Q: What about the IC50 (cells) of the same compound?
A: > 67.5 µM (inactive)

Q: What about the AC50 [3] of the same compound?
A: 2.59 µM (active)

Q: With `CC1CCCC(C)N1CCCNC(=O)c1nn(C)c2c1CSc1ccccc1-2` (stereo not drawn) as the compound, how does the AC50 [4] read?
A: > 70 µM (inactive)

Q: With `Cc1cc(C)c2c(N=NN3CCCCC3)[nH]nc2n1` as the compound, how does the AC50 [5] read?
A: 4.01 µM (active)

Q: With `c1ccc2c3nc[nH]c(N4CCN(C5CCCCC5)CC4)c-3nc2c1` as the compound, how does the AC50 [6] read?
A: 40.5 µM (active)

Q: Which AC50 (INS1) does the source give for `CC(Oc1cccc(Cl)c1)C(=O)Nc1cc(S(=O)(=O)N2CCOCC2)ccc1N1CCCCC1` (stereo not drawn) here?
A: 5.41 µM (active)

Q: What about the IC50 [7] of the same compound?
A: 74.9 µM (active)

Q: For `Cc1ccc(NC(=O)CCN2CCC(Cc3ccccc3)CC2)cc1`, which EC50 [8] is on record?
A: 0.0667 µM (active)

Q: With `CC(=O)Nc1ccc(S(=O)(=O)N2c3ccccc3C(C)=CC2(C)C)cc1` as the compound, how does the EC50 (BJ [9]) read?
A: 13 µM (inconclusive)

Q: What about the EC50 (BJ [10]) of the same compound?
A: 7.82 µM (inconclusive)

Q: What about the IC50 [1] of the same compound?
A: 49.7 µM (inactive)

Q: And the EC50 [11]?
A: 10.4 µM (inconclusive)

Q: And the IC50 [12]?
A: > 80 µM (inactive)

Q: And the EC50 (BJ [13])?
A: 9.33 µM (inconclusive)
